{
  "source": "patent US20230117947A1",
  "about": "“Seed Treatment Methods and Compositions” (Novozymes BIOAG A/S, priority 2011, published 2023)",
  "assay_type_in_all_cases": "in vivo",
  "key": {"[1]": {"test_system": "soybean seed (Stine S2118)", "assay": "Field trial (Example 1): grain yield from treated soybean seed, Whitewater, Wis.", "details": "for GRAIN YIELD @ 13%: 4.8 fl oz/cwt, 13% seed moisture", "procedure": "A field trial was conducted to evaluate embodiments of the present invention on grain yield when applied on soybean seed. The field trial site was located near Whitewater, Wis. and characterized by Milford silty clay loam soil.\nThe plant signal molecules used in the trial were Optimize®, a non-commercial grade of Optimize® (NI-50S-1), pure LCO-V (C18:1, MeFuc)(NI-50GREN-1) and a non-commercial grade of LCO-V (C18:1, MeFuc)(NI-50S-2CF). The soybean seed used in the study was Stine S2118. The plant signal molecules were sprayed onto seeds with/without dilution at a rate of 4.8 fl oz/cwt.\nThe study was conducted in a randomized complete block design, with a plot size of 10 feet by 50 feet (0.011 acres), with 7.5-inch row spacing. Four replications were conducted. Seed were treated with the plant signal molecules 4.5 or 5 months prior to planting and just prior to planting, and were planted at a depth of 1 inch and at a seedling rate of 225,000 seeds per acre using a John Deere 750 NT grain drill. The pesticides Extreme® and AMPS® were both applied 11 days prior to planting (pre-emergence) at rates of 3.0 pt and 2.5 lb, respectively. Assure II®, Roundup WeatherMax® and AMPS® were all applied 46-days post-planting (post-emergent), at rates of 6.0 oz, 21 oz and 2.5 lb, respectively. Plants were harvested 4 months and 20 days after planting.\nThe Control seed was treated with an amount (wt) of water, corresponding to the amount (wt) of the experimental signal molecule composition (signal molecule+carrier). The Control seed was stored under the same conditions as the experimental seed prior to planting and planted at the same time as the experimental seed in the same soil."}, "[2]": {"test_system": "soybean seed (Stine 52118)", "assay": "Field trial (Example 2): grain yield from treated soybean seed, Whitewater, Wis.", "details": "for GRAIN YIELD @ 13%: 4.8 fl oz/cwt, 13% seed moisture", "procedure": "A soybean trial was conducted to evaluate embodiments of the present invention on grain yield when applied on soybean seed. The field trial site was located near Whitewater, Wis. and characterized by Milford silty clay loam soil. […] The plant signal molecules used in the trial were same as in Example 1. The soybean seed used in the study was Stine 52118. The plant signal molecules were sprayed onto seeds with/without dilution at a rate of 4.8 fl oz/cwt. The study was conducted in a randomized complete block design, with a plot size of 10 feet by 50 feet (0.011 acres), with 7.5-inch row spacing. Four replications were conducted. Seed were treated with the plant signal molecules 4.5 or 5 months prior to planting and just prior to planting, and were planted at a depth of 1 inch and at a seedling rate of 225,000 seeds per acre using a John Deere 750 NT grain drill. The pesticides Extreme® and AMPS® were both applied 10 days prior to planting (pre-emergence) at rates of 3.0 pt and 2.5 lb, respectively. Assure II®, Roundup WeatherMax® and AMPS® were all applied 45-days post-planting (post-emergent), at rates of 6.0 oz, 21 oz and 2.5 lb, respectively. Plants were harvested 4 months and 21 days after planting. The Control seed was treated with an amount (wt) of water, corresponding to the amount (wt) of the experimental signal molecule composition (signal molecule+carrier). The Control seed was stored under the same conditions as the experimental seed prior to planting and planted at the same time as the experimental seed in the same soil."}, "[3]": {"test_system": "Soybean seeds", "assay": "Greenhouse test (Example 3): root length and root volume of seedlings from stored treated seed (Winrhizo scanner)", "details": "for % increase in root length / % increase in root vol.: versus Control; for Root Vol. / Root length: 10^−7M, stored at 15° C., harvested after 10 days", "procedure": "Soybean seeds treated with 10^−7M pure LCO-V (C18:1, MeFuc) and stored at 15° C. Treated seeds and non-treated seeds (control) were planted 1 and 12 months after treatment in greenhouse pots containing sand:perlite (1:1 mixture). Seedlings were grown for 10 days after seed plantings then seedlings were harvested, their roots cleaned and measured on the Winrhizo® scanner. The Control seed was treated with an amount (wt) of water, corresponding to the amount (wt) of the experimental signal molecule composition (signal molecule+carrier). The Control seed was stored under the same conditions as the experimental seed prior to planting and planted at the same time as the experimental seed in the same soil."}, "[4]": {"details": "5 months pre-planting (Group 5) versus at planting (Group 4)"}, "[5]": {"details": "seed treated 5 months prior to planting"}, "[6]": {"details": "planted 1 month after treatment"}},
  "note": "Marks after values point to notes of the source that are not given here.",
  "data": [
    {"substance": "LCO-V (C18:1, MeFuc) [NI-50GREN-1]", "values": [
      {"measurement": "increase in soybean yield", "setting": "[1]; [4]", "value": 8.3, "unit": "bushels/acre"},
      {"measurement": "GRAIN YIELD @ 13%", "setting": "[1]; [5]", "value": 70.5, "unit": "bushels/acre"},
      {"measurement": "GRAIN YIELD @ 13%", "setting": "[1]; seed treated at planting", "value": 62.2, "unit": "bushels/acre"},
      {"measurement": "decrease in soybean yield", "setting": "[2]; [4]", "value": 1.8, "unit": "bushels/acre"},
      {"measurement": "GRAIN YIELD @ 13%", "setting": "[2]; [5]", "value": 64.0, "unit": "bushels/acre"},
      {"measurement": "GRAIN YIELD @ 13%", "setting": "[2]; seed treated at planting", "value": 65.8, "unit": "bushels/acre"},
      {"measurement": "% increase in root length", "setting": "[3]; 1 month after treatment", "value": 5.46, "unit": "%"},
      {"measurement": "% increase in root vol.", "setting": "[3]; 1 month after treatment", "value": 2.86, "unit": "%"},
      {"measurement": "% increase in root length", "setting": "[3]; 1 yr after treatment", "value": 37.92, "unit": "%"},
      {"measurement": "% increase in root vol.", "setting": "[3]; 1 yr after treatment", "value": 34, "unit": "%"},
      {"measurement": "Root Vol.", "setting": "[3]; [6]", "value": 0.468, "unit": "cm^3"},
      {"measurement": "Root length", "setting": "[3]; [6]", "value": "135* cm"},
      {"measurement": "Root Vol.", "setting": "[3]; planted 1 yr after treatment", "value": "0.540* cm^3"},
      {"measurement": "Root length", "setting": "[3]; planted 1 yr after treatment", "value": "159.3* cm"}
    ]}
  ]
}
